The nature of data set [1]: IMPase-catalyzed hydrolysis at pH 9.00 at 25 degrees Centigrade. It is filed as ADME. The note with it: for Km / k cat: buffer.
Data set [2] can be described thus: Oxidation catalyzed by inositol dehydrogenase at pH 9.13. In kind it is ADME.

pKi: −log10 of the molar value.

What is called Km is the substrate concentration at which the rate is half of its maximum. Turning to `O=P(O)(O)OC1C(O)C(O)C(O)C(O)C1O` (stereo not drawn), in data set [1], the Km is 110 µM and the k cat came to 0.48 s⁻¹.

By pKi is commonly meant −log10 of the Ki, conventionally taken in molar units. Low readings indicate a large Ki, high ones a small Ki. For `OC1C(O)C(O)C(OP(O)(O)=S)C(O)C1O` (stereo not drawn), in data set [1], the pKi was 2.94, the Km amounted to 2070 µM and the k cat came out at 0.185 s⁻¹.

Consider `O[C@H]1[C@H](O)[C@@H](O)[C@H](O)[C@@H](O)[C@H]1O` [INOSITOL], for which, in data set [2], the Michaelis constant (Km) was found to be 580 µM, the k cat turned out to be 13.3 s⁻¹ and the “k cat/Km” value was found to be 23100 M⁻¹ s⁻¹.

The values above are taken from ChEMBL document CHEMBL1135895, “Stereochemistry at phosphorus of the reaction catalyzed by myo-inositol monophosphatase” (J Med Chem, 2002).
